Where two headings read alike, the source gives them in different places. Marks after values point to notes of the source that are not given here.
Legend:
T47D cells [1] = experiment: 3H-thymidine incorporation (DNA synthesis) in T47D cells; assay type: cell-based, human; conditions: 0.1 μg/ml, 72 hr, FIG. 1
Experimental: (§1) FIG. 1: Effect of H-7, TPA, MEZ and ADMB on T47D cell growth and DNA synthesis. Cell growth assays are presented in (A). T47D cells were seeded at 1×10^4 cells/35 mm tissue culture plate, the medium was changed with the indicated compounds 24 hr later and cell numbers were determined after an additional 72 hr growth at 37° C. by Coulter Counter. Results are the average of triplicate samples/experimental condition which varied by ≦10%. DNA synthesis assays are presented in (B). T47 D cells were seeded at 1.25×10^4 cells in 0.2 ml of media in 96 microtiter plates. Every 24 hr, cultures received 1 μCi of methyl-^3H-thymidine and 8 hr later cells were harvested and TCA precipitable counts were determined. Results are the average from replicate samples exposed to the indicated compounds for 72 hr. Replicate samples varied by ≦10% and replicate studies varied by ≦15%. Further details can be found in “Detailed Description Of The Invention”.
(§2) T47D cells were seeded at 5×10^3 cells/ml in 35 mm tissue culture plates and 24 hr later the medium was changed with the indicated compounds. Seventy-two hr later the cells were resuspended in trysin/versene (0.125%/0.02%, w/w) and counted using a ZM Coulter Counter (Coulter Electronics). For ^3H-thymidine incorporation studies, T47D cells were seeded at 1.25×10^4 cells in 0.2 ml of media in 96 well microtiter plates. Every 24 hr, plates received 1 μCi of methyl-^3H-thymidine (specific activity […]) (ICN Radiochemicals, Irvine, Calif.), cells were harvested 8 hr after the addition of labeled thymidine and TCA precipitable counts were determined using a Packard scintillation counter. Replicate samples varied by ≦10% and replicate studies varied by ≦15%.

CA19.9 = experiment: FACS analysis of CA19.9 (MoAb B67.4) in CBS human colon carcinoma cells; assay type: cell-based; conditions: 96 hours
Experimental: (§3) Cells were plated in 10 cm plates, media was changed 24 hours later with no addition (control) or addition of the indicated compounds and cells were incubated at 37° C. for 96 hours. Cells were resuspended using 10× EDTA and antigen expression was determined as described (Leon, Mesa-Tejada, Gutierrez, Estabrook, Breiner, Schlom & Fisher: Anticancer Res. 9:1639-1648, 1989; Leon, Gutierrez, Jiang, Estabrook, Waxman & Fisher: Cancer Immuno. Immunother. 35:315-324 1992).

T47D cells [2] = experiment: T47D cell growth assay (Coulter Counter); assay type: cell-based, human; conditions: for effect on 72 hr growth: 0.1 μg/ml, FIG. 1
Experimental: as §1, §2

HLA-DR = experiment: FACS analysis of HLA-DR (MoAb L243) in CBS human colon carcinoma cells; assay type: cell-based; conditions: 96 hours
Experimental: as §3

MoAb K56 = experiment: FACS analysis of MoAb K56 binding in WiDr human colon carcinoma cells; assay type: cell-based
Experimental: as §3, with “for the indicated time (72 or” for “for”, “hours).” for “hours.”, “Greiner,” for “Breiner,”, “Immunol. Immmunother. 35:315-324,” for “Immuno. Immunother. 35:315-324”

HLA Class I = experiment: Northern blotting, steady-state HLA Class I mRNA in T47D cells; assay type: cell-based, human; conditions: 72 hr; for increase in HLA class I antigen mRNA levels: 500 units/ml IFN-α or IFN-β, 50 units/ml IFN-γ, 0.1 μg/ml TPA or MEZ, densitometry
Experimental: FIG. 3: Effect of interferon, ADMB, TPA and MEZ, alone and in combination with H-7, on steady-state mRNA levels of HLA Class I antigens, HLA Class II-DRβ antigen, c-erbB-2, ICAM-1 and GAPDH in T47D human breast carcinoma cells. […] Cultures were also grown in the presence of 0.1 μg/ml of H-7 for 72 hr with and without the additional compounds indicated above. Total cytoplasmic RNA was isolated and processed as described in “Detailed Description Of The Invention.” Control: CON; recombinant human leukocyte interferon-A: IFN-αA; recombinant human fibroblast interferon: IFN-β; recombinant human immune interferon: IFN-γ; ADMB; 3-(N-acetylamino)-5-(N-decyl-N-methylamino)-benzyl alcohol; TPA; 12-0-tetradecanoyl-phorbol-13-acetate; MEZ; mezerein; H-7: (1-(5-isoquinolinesulfonyl)-2-methylpiperazine dihydrochloride.
Steady-state levels of HLA Class I, HLA Class II-DRβ, c-erbB-2 and ICAM-I mRNA in control and treated T47D cells were determined by Northern blotting analysis of total cytoplasmic RNA probed with appropriate ^32P-labeled gene probes as previously described. Northern blots were also probed with a ^32P-labeled glyceraldehyde phosphate dehydrogenase (GAPDH) gene probe to verify equal […] under various experimental conditions. Following hybridization, the filters were washed and exposed for autoradiography.

[3] = 72 Hour Treatment, MEZ 100 ng/ml, IFN-γ 100 U/ml
[4] = 96 Hour Treatment, MEZ 100 ng/ml, IFN-γ 100 U/ml

| Molecule | effect on DNA synthesis (3H-thymidine incorporation) (T47D cells [1]) | effect on 72 hr growth (T47D cells [2]; T47D cells) | increase in HLA class I antigen mRNA levels (HLA Class I) | Monoclonal Antibody Binding (MFI) MoAb B67.4 (CA19.9) (CA19.9; MEZ 1100 ng/ml, IFN-γ 100 U/ml) | Monoclonal Antibody Binding (MFI) MoAb L243 (HLA-DR) (HLA-DR; MEZ 1100 ng/ml, IFN-γ 100 U/ml) | Monoclonal Antibody Binding (MFI) MoAb K56 (MoAb K56; [3]) | Monoclonal Antibody Binding (MFI) MoAb K56 (MoAb K56; [4]) | also measured |
| --- | --- | --- | --- | --- | --- | --- | --- | --- |
| CCCCCCCCCCN(C)c1cc(CO)cc(NC(C)=O)c1 [ADMB, 3-(N-acetylamino)-5-(N-decyl-N-methylamino)-benzyl alcohol] | only marginally altered | only marginally altered |  |  |  |  |  | Monoclonal Antibody Binding (MFI) MoAb B67.4 (CA19.9) (CA19.9; ADMB 0.01 μg/ml): 3562* MFI; Monoclonal Antibody Binding (MFI) MoAb B67.4 (CA19.9) (CA19.9; ADMB 0.1 μg/ml): 3473* MFI; Monoclonal Antibody Binding (MFI) MoAb B67.4 (CA19.9) (CA19.9; ADMB 1.0 g/ml): 3962* MFI; Monoclonal Antibody Binding (MFI) MoAb L243 (HLA-DR) (HLA-DR; ADMB 0.01 μg/ml): 4112 MFI; Monoclonal Antibody Binding (MFI) MoAb L243 (HLA-DR) (HLA-DR; ADMB 0.1 μg/ml): 3328 MFI; Monoclonal Antibody Binding (MFI) MoAb L243 (HLA-DR) (HLA-DR; ADMB 1.0): 6870* MFI; Monoclonal Antibody Binding (MFI) MoAb K56 (MoAb K56; 72 Hour Treatment, ADMB 0.01 μg/ml): 844 MFI; Monoclonal Antibody Binding (MFI) MoAb K56 (MoAb K56; 72 Hour Treatment, ADMB 0.1 μg/ml): 715 MFI; Monoclonal Antibody Binding (MFI) MoAb K56 (MoAb K56; 72 Hour Treatment, ADMB 1.0 μg/ml): 879 MFI; Monoclonal Antibody Binding (MFI) MoAb K56 (MoAb K56; 96 Hour Treatment, ADMB 0.01 μg/ml): 827 MFI; Monoclonal Antibody Binding (MFI) MoAb K56 (MoAb K56; 96 Hour Treatment, ADMB 0.1 μg/ml): 1116 MFI; Monoclonal Antibody Binding (MFI) MoAb K56 (MoAb K56; 96 Hour Treatment, ADMB 1.0 μg/ml): 1008 MFI |
| CC1CNCCN1S(=O)(=O)c1cccc2cnccc12.Cl.Cl (stereo not shown) [H-7, 1-(5-isoquinolinesulfonyl)-2-methylpiperazine dihydrochloride] |  |  |  |  |  |  |  | alteration of HLA class I mRNA levels by H-7 (HLA Class I; 0.1 μg/ml H-7): ≤ 1.2 fold |
| C=C(C)[C@@]12O[C@@]3(c4ccccc4)O[C@@H]1[C@@H]1[C@@H]4O[C@]4(CO)[C@@H](O)[C@]4(O)C(=O)C(C)=C[C@H]4[C@@]1(O3)[C@H](C)[C@H]2OC(=O)/C=C/C=C/c1ccccc1 [MEZ, mezerein] | only marginally altered | only marginally altered | 1.75 fold | 3288* MFI | 9726* MFI | 964* MFI | 1104 MFI | 72 hr growth suppression in combination with H-7 (T47D cells [2]; T47D cells, in combination with 0.1 μg/ml of H-7, data not shown): No additive or synergistic effect |
| CCCCCCCCCCCCCC(=O)O[C@@H]1[C@@H](C)[C@@]2(O)[C@@H](C=C(CO)C[C@]3(O)C(=O)C(C)=C[C@@H]23)[C@H]2C(C)(C)[C@]12OC(C)=O [TPA, 12-0-tetradecanoyl-phorbol-13-acetate] | suppressed to the greatest degree | suppressed to the greatest degree | 1.3 fold |  |  |  |  | 72 hr growth suppression in combination with H-7 (T47D cells [2]): No additive or synergistic effect |
| IFN-β: recombinant human fibroblast interferon with a serine substituted for a cysteine at position 17 (protein, UniProt P01574 22-187, looked up, variant C17S) Interferon beta: MSYNLLGFLQRSSNFQSQKLLWQLNGRLEYCLKDRMNFDIPEEIKQLQQFQKEDAALTIYEMLQNIFAIFRQDSSSTGWNETIVENLLANVYHQINHLKTVLEEKLEKEDFTRGKLMSSLHLKRYYGRILHYLKAKEYSHCAWTIVRVEILRNFYFINRLTGYLRN |  |  | 2.1 fold |  |  |  |  |  |
| IFN-γ: recombinant human immune interferon produced in Escherichia coli (protein, UniProt P01579 24-161, looked up) Interferon gamma: QDPYVKEAENLKKYFNAGHSDVADNGTLFLGILKNWKEESDRKIMQSQIVSFYFKLFKNFKDDQSIQKSVETIKEDMNVKFFNSNKKKRDDFEKLTNYSVTDLNVQRKAIHELIQVMAELSPAAKTGKRKRSQMLFRG |  |  | 1.8 fold | 4970* MFI | 14972* MFI | 1046* MFI | 1021 MFI | activity in increasing Class II HLA-DR antigens relative to ADMB (HLA-DR): approximately 2 × |
